For 2 compounds, inhibition results are on record in patent EP4467141A1, “PYRAZOLO-QUINOLINES AS SELECTIVE INHIBITORS OF GENOTOXIC STRESS-INDUCED IKK/NF- KB PATHWAYS FOR CANCER THERAPY” (Max-Delbrück-Centrum für Molekulare Medizin in der …, priority 2023, dated 2024).

Holding throughout (assay): Kinase panel study
Holding throughout (type): biochemical
Holding throughout (conditions): read-out: Percentage of inhibition; for inhibition at 1 µM: 1000nM; for inhibition at 10 µM: 10000nM

The target of experiment [1] is T1, LRRK2 G2019S FL (Homo sapiens, UniProt Q5S007, G2019S).
T1 construct: LRRK2 G2019S FL; purchased Thermo Fisher Scientific
Summed up: (§1)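 Lead compounds and derivatives were profiled by ZLyte or Adapta in vitro kinase assays. Each value reports inhibition percentage at one of two concentrations, 1 µM or 10 µM.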

Experiment [2] has as its target T2, ADRBK1 (GRK2) (Homo sapiens, UniProt P25098).
T2 construct: purchased Thermo Fisher Scientific
T2 sequence (P25098 1-689): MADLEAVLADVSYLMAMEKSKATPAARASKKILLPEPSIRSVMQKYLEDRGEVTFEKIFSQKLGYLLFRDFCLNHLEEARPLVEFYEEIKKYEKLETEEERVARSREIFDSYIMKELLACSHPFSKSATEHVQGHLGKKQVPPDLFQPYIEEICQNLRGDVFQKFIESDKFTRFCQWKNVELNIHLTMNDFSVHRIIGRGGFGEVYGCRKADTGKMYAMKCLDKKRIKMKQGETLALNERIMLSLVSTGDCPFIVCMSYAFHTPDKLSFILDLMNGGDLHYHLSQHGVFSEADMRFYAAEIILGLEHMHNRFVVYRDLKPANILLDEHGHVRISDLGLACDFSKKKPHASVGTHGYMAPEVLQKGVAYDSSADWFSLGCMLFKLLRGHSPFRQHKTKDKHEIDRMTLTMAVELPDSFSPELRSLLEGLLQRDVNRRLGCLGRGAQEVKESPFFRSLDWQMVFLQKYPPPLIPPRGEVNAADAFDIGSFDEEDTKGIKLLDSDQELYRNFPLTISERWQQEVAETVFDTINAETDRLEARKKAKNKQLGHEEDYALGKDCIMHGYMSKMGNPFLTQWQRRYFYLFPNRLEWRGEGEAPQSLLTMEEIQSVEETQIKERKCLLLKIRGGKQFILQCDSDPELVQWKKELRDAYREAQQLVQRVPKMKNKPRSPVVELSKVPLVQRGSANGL
The gist of the method: as §1

For experiment [3], the target named is T3, AMPKA2/B1/G1 (Homo sapiens, UniProt P54646).
T3 construct: purchased Thermo Fisher Scientific
The gist of the method: as §1

Experiment [4] deals with T4, EGFR (ErbB1) L858R (Homo sapiens, UniProt P00533, L858R).
T4 construct: purchased Thermo Fisher Scientific
Summed up:
as §1

Experiment [5] has as its target T5, FLT4 (VEGFR3) (Homo sapiens, UniProt P35916).
T5 construct: purchased Thermo Fisher Scientific
The gist of the method:
as §1

Experiment [6] has as its target T6, EPHB2 (Homo sapiens, UniProt P29323).
T6 construct: purchased Thermo Fisher Scientific
T6 sequence (P29323 19-1055): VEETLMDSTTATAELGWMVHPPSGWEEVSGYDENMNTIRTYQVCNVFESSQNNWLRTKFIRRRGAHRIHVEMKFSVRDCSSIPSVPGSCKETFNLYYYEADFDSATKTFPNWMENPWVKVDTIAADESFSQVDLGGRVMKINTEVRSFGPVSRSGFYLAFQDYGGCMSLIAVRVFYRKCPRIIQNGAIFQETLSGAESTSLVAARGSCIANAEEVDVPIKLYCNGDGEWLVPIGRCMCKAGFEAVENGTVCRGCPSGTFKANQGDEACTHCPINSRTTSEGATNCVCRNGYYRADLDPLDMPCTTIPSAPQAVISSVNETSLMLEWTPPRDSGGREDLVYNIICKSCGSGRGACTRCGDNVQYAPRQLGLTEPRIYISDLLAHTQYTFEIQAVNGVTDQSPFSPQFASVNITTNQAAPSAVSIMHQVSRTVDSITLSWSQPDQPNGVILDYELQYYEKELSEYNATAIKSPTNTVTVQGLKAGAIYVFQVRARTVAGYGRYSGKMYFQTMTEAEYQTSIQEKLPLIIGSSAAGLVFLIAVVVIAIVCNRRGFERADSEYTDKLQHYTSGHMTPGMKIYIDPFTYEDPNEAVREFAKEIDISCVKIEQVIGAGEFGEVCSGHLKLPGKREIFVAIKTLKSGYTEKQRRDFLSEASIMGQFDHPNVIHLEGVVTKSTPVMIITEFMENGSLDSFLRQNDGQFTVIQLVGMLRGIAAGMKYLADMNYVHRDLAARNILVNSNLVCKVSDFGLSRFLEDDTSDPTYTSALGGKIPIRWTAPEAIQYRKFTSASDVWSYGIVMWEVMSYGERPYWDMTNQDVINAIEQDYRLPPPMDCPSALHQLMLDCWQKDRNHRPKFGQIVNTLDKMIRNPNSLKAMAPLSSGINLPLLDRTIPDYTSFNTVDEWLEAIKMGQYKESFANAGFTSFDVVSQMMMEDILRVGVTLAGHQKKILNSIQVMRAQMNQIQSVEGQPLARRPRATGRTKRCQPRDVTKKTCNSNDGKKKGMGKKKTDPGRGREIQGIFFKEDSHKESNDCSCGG
The gist of the method:
as §1

T4 sequence (P00533 25-1210 L858R): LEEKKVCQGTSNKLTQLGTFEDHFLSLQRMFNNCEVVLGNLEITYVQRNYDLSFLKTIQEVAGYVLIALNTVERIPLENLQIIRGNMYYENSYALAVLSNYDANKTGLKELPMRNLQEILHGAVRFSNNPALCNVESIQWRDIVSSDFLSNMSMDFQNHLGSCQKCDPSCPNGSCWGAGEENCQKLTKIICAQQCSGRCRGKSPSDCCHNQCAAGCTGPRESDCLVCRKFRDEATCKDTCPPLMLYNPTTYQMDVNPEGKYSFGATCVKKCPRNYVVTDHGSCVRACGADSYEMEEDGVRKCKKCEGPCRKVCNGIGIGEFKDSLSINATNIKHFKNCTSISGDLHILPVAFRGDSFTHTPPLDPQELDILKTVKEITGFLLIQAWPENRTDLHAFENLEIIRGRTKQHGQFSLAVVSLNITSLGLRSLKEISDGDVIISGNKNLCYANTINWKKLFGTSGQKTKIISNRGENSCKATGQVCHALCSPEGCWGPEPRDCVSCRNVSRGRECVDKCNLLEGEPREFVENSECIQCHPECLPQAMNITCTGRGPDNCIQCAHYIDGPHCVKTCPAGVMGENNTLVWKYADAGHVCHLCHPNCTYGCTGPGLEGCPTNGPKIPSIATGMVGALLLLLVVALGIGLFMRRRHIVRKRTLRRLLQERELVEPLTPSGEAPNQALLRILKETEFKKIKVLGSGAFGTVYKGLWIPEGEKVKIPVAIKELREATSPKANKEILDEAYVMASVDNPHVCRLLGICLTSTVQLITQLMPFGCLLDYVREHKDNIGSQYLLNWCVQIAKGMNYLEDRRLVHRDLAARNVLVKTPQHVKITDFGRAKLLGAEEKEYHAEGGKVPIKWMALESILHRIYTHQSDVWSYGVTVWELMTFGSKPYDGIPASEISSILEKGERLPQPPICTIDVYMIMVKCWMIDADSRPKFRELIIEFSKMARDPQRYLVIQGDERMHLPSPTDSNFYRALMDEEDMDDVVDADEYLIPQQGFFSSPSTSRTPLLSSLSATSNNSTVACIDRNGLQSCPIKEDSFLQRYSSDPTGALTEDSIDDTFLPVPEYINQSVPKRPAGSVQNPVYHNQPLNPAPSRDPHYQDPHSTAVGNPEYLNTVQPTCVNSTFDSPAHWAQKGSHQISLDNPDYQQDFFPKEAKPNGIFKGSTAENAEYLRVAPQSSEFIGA
T1 sequence (Q5S007 whole entry G2019S): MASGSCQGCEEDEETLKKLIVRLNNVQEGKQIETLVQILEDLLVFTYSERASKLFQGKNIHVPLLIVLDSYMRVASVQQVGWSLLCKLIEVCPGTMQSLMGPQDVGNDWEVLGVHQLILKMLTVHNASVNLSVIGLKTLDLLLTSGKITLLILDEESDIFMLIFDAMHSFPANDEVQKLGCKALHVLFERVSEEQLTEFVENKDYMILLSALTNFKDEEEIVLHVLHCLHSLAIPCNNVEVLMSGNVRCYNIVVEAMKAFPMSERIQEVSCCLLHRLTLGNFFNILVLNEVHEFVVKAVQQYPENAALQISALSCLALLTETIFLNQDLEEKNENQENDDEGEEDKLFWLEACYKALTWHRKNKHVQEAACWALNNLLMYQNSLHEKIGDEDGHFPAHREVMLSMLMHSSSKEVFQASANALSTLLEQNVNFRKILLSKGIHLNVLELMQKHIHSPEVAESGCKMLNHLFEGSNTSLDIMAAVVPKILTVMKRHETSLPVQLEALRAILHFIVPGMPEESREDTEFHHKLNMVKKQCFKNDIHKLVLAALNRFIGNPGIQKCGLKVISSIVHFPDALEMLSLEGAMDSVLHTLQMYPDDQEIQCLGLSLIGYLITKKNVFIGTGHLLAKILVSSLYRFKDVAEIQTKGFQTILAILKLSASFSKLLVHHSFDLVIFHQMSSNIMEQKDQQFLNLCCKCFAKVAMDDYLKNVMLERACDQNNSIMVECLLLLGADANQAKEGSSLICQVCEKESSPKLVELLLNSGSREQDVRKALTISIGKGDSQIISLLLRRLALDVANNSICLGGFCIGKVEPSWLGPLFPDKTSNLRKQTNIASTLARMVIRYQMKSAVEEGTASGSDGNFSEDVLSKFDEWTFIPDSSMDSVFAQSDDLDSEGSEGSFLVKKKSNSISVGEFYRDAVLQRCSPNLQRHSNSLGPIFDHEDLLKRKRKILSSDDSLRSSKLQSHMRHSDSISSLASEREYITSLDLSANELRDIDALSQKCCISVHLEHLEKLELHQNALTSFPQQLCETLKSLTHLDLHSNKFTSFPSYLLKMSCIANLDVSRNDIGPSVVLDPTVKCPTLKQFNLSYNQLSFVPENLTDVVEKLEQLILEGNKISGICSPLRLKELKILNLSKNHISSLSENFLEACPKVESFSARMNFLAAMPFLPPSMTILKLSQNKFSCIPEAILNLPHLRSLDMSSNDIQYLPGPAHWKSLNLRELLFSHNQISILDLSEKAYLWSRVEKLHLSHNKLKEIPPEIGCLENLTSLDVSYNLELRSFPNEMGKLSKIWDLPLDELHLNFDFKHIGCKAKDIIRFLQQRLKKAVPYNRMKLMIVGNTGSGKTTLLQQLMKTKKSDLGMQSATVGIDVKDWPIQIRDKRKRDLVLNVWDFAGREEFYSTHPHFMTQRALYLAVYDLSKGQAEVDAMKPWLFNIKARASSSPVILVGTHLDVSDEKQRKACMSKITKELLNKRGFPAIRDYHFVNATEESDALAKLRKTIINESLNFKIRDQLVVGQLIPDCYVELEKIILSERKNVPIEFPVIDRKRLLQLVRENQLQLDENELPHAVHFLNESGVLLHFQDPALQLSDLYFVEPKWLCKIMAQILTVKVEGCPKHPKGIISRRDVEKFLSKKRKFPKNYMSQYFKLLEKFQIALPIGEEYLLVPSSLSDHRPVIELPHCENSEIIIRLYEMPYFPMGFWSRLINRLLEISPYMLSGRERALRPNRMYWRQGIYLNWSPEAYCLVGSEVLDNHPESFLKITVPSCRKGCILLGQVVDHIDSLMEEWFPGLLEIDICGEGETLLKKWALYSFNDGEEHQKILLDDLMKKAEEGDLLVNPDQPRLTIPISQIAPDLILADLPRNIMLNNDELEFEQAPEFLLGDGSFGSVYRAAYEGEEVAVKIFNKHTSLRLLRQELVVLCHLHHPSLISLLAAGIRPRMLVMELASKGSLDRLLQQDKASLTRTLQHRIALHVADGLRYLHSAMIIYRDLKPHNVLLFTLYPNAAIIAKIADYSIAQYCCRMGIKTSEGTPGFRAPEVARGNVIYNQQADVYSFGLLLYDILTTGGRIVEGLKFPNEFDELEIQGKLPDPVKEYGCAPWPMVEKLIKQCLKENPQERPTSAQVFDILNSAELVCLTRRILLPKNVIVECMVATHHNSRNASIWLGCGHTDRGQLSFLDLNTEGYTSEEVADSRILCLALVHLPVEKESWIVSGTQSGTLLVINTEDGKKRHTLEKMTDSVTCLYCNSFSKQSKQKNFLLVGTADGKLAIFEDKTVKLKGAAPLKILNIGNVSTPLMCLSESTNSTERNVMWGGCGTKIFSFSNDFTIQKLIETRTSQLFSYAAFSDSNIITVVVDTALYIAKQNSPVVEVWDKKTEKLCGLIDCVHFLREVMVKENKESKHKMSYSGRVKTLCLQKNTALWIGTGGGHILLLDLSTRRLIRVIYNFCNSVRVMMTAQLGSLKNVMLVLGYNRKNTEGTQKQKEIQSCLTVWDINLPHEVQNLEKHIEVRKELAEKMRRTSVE
T3 sequence (P54646 whole entry): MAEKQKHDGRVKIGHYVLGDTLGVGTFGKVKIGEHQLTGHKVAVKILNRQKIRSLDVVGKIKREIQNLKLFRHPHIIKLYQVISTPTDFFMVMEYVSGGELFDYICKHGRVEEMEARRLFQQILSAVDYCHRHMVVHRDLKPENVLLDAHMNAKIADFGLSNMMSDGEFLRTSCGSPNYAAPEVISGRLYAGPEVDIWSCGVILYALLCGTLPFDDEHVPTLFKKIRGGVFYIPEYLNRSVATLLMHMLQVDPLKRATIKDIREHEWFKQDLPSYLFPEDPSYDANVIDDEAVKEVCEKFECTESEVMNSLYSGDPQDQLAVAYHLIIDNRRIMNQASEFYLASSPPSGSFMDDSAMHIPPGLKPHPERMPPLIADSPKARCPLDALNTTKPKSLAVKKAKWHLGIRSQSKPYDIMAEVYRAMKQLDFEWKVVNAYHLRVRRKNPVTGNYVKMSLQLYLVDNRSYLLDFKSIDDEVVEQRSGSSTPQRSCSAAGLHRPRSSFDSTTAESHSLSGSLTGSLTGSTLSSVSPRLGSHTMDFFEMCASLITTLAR
T3 sequence (Q9Y478 whole entry partner): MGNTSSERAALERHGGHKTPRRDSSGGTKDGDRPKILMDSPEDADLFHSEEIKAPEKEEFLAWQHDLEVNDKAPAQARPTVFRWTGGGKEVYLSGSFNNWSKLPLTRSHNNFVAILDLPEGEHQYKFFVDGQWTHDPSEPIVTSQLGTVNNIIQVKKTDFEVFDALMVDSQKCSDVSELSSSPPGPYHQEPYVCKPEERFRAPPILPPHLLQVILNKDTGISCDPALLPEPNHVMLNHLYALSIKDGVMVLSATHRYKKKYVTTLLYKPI
T3 sequence (P54619 whole entry partner): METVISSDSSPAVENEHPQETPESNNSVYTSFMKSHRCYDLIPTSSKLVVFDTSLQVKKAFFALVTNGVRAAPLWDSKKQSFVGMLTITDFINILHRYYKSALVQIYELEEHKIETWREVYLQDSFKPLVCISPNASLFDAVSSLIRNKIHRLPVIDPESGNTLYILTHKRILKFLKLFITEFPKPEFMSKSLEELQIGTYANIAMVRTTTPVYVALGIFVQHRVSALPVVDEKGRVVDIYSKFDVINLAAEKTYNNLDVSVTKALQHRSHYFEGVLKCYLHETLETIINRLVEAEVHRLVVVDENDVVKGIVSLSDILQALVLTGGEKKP

Turning to `COc1ccc2c(c1OC)c(=O)n1c3ccc(O)cc3c3ccnc2c31` [MW01, 5-Hydroxy-10,11-dimethoxy-9H-benzo[c]indolo[3,2,1-ij][1,5]naphthyridin-9-one], the inhibition at 1 µM in experiment [1] was found to be 87%; in experiment [2], 8%; in experiment [3], 8%; in experiment [4], 3%; in experiment [5], 13%; in experiment [6], 10%. Besides, the inhibition at 10 µM came out at 90% in experiment [1]; 17% in experiment [2]; 32% in experiment [3]; 5% in experiment [4]; 31% in experiment [5]; 17% in experiment [6].

As for `COc1ccc2cc3c(N)nn(C(=O)c4cccc(N(C)C)c4)c3nc2c1` [MW05, (3-Amino-7-methoxypyrazolo[3,4-b]quinolin-1-yl)-[3-(dimethylamino)phenyl]methanone], the inhibition at 1 µM in experiment [1] was -1%; in experiment [2], -1%; in experiment [3], 5%; in experiment [4], 6%; in experiment [5], 7%; in experiment [6], 6%. For the same compound, the inhibition at 10 µM was 11% in experiment [1]; 4% in experiment [2]; 0% in experiment [3]; 16% in experiment [4]; -3% in experiment [5]; 1% in experiment [6].
